# According to PMC6151961 (Journal of Enzyme Inhibition and Medicinal Chemistry, 2018):
# pKi: −log10 of the molar value. Read-outs that look alike come from different tables or passages of the source.
# Key:
# CA IX [1] = target: T1, CA IX (Homo sapiens, UniProt Q16790); assay: biochemical
# CA IX [2] = target: T1, CA IX; conditions: cited from earlier work; for pKi: read-out: Ki
# [3] = experimental value used for the QSPR model, library compounds (IDs A…, B…), equals log10 of Ki in nM
# [4] = library compounds with IDs A… and B…, from observed Ki (nM)
# [5] = experimental value from the library Ki (IDs A…, B…), values equal log10 of Ki in nM
# [6] = library compounds (IDs A…, B…) of Table S4, ref ChEMBL and BindingDB
# [7] = library compounds (IDs A…, B…), values equal log10 of Ki in nM, ref ChEMBL and BindingDB
# [8] = observed Ki of library compounds (IDs A..., B...), ref ChEMBL, BindingDB
# [9] = experimental pKi towards CA IX, library compounds, ref ChEMB database (ID A), BindingDB (ID B)
# [10] = observed Ki towards CA IX, library compounds, ref ChEMB database (ID A), BindingDB (ID B)
smiles,measurement,setting,value
NS(=O)(=O)c1ccc(-c2cccc(C=O)c2)cc1 [A1584],log10 of Ki in nM,CA IX [1],1.993
NS(=O)(=O)c1ccc(CCNC(=S)Nc2ccc(C(=O)O)cc2)cc1 [A0666],log10 of Ki in nM,CA IX [1]; [3],1.000
Cc1cc(C)c(S(=O)(=O)Nc2cccc(C3C4=C(CC(C)(C)CC4=O)N(c4ccc(S(N)(=O)=O)cc4)C4=C3C(=O)CC(C)(C)C4)c2)c(C)c1 [A1535],log10 of Ki in nM,CA IX [1]; [4],1.954
NS(=O)(=O)c1ccc(NC2=NC(=O)/C(=N/Nc3ccc(Cl)cc3)S2)cc1 [B0138],log10 of Ki in nM,CA IX [1]; [3],0.863
CCOC(=O)c1ccc(NC(=O)NNC(=O)c2ccc(S(N)(=O)=O)cc2)cc1 [A0551],log10 of Ki in nM,CA IX [1]; [4],0.929
NS(=O)(=O)c1ccc(-n2cc(-c3ccc(Br)cc3)c3c2ncn2nc4c5ccccc5nc-4nc32)cc1 [B0025],log10 of Ki in nM,CA IX [1]; [3],0.431
NS(=O)(=O)c1ccc(CNC(=S)N[C@@H]2O[C@H](CO)[C@@H](O)[C@H](O)[C@H]2O)cc1 [A0577],log10 of Ki in nM,CA IX [1],0.944
NS(=O)(=O)c1cc(-c2cnc(C(=O)N3CCOCC3)o2)cs1 [B0343],log10 of Ki in nM,CA IX [1]; [3],1.447
COC(=O)[C@H]1O[C@@H](n2cc(COC(=O)c3ccc(S(N)(=O)=O)cc3)nn2)[C@H](OC(C)=O)[C@@H](OC(C)=O)[C@@H]1OC(C)=O [A1674],log10 of Ki in nM,CA IX [1],2.097
NS(=O)(=O)c1cccc(-c2cn([C@@H]3O[C@H](CO)[C@@H](O)[C@H](O)[C@H]3O)nn2)c1 [A1463],log10 of Ki in nM,CA IX [1]; [3],1.893
Cc1ccc2c(c1)/C(=N\c1ccc(C(=O)Nc3ccc(S(N)(=O)=O)cc3)cc1)C(=O)N2 [B0670],log10 of Ki in nM,CA IX [1]; [3],2.303
O=S1(=O)C=Cc2cc(-n3nncc3-c3cccc(C(F)(F)F)c3)ccc2O1 [A0646],log10 of Ki in nM,CA IX [1]; [4],0.982
CCCN(CCC)S(=O)(=O)c1ccc(C(=O)N[C@@H](CCC(=O)O)C(N)=O)cc1 [A0921],log10 of Ki in nM,CA IX [1]; [5],1.362
O=S1(=O)C=Cc2cc(-n3cc(-c4cccc(F)c4)nn3)ccc2O1 [A0598],log10 of Ki in nM,CA IX [1]; [4],0.954
NS(=O)(=O)c1ccc(NC(=S)N[C@@H]2O[C@H](CO)[C@H](O)[C@H](O)[C@H]2O)cc1 [A0430],log10 of Ki in nM,CA IX [1]; [5],0.845
O=S1(=O)C=Cc2cc(-n3cc(C4CC4)nn3)ccc2O1 [A1333],log10 of Ki in nM,CA IX [1]; [3],1.782
NS(=O)(=O)c1ccc2nc(-n3cc(/C=N/O)c(-c4ccc([N+](=O)[O-])cc4)n3)sc2c1 [A1655],log10 of Ki in nM,CA IX [1]; [4],2.076
CC(=O)NNc1ccccc1S(N)(=O)=O [A1755],log10 of Ki in nM,CA IX [1],2.243
Cc1ccc(NC(=S)NNC(=O)c2ccccc2O)cc1 [A2191],log10 of Ki in nM,CA IX [1]; [3],3.095
Cc1ccc(-c2cc(CO)nn2-c2ccc(S(N)(=O)=O)cc2)cc1 [A0902],log10 of Ki in nM,CA IX [1]; [5],1.342
NS(=O)(=O)c1ccc(-c2cn([C@@H]3O[C@H](CO)[C@@H](O)[C@H](O)[C@H]3O)nn2)cc1 [A1466],log10 of Ki in nM,CA IX [1],1.897
CC(=O)OC[C@H]1O[C@@H]([S+]([O-])Cc2cn(-c3ccc(S(N)(=O)=O)cc3)nn2)[C@H](OC(C)=O)[C@@H](OC(C)=O)[C@H]1OC(C)=O (stereo partly shown) [B0152],log10 of Ki in nM,CA IX [1],0.886
CN(C)c1ccc(/N=N/c2ccc(S(N)(=O)=O)cc2)cc1 [A0408],log10 of Ki in nM,CA IX [1]; [5],0.820
CCCN(CCC)S(=O)(=O)c1ccc(C(=O)N[C@@H](Cc2c[nH]c3ccccc23)C(N)=O)cc1 [A0923],log10 of Ki in nM,CA IX [1]; [5],1.362
CCCN(CCC)S(=O)(=O)c1ccc(C(=O)N[C@@H](CS)C(=O)O)cc1 [A1793],log10 of Ki in nM,CA IX [1]; [5],2.305
NS(=O)(=O)c1ccc(-n2cc(-c3ccc(Br)cc3)c3c2N=CN2NC(=O)CN=C32)cc1 [A0710],log10 of Ki in nM,CA IX [1]; [4],1.068
COc1ccc2c(c1)/C(=N\NC(=O)c1cnn(-c3ccc(S(N)(=O)=O)cc3)c1-c1ccccc1)C(=O)N2 [B0041],log10 of Ki in nM,CA IX [1]; [4],0.519
NS(=O)(=O)OCCCCOS(N)(=O)=O [A2532],log10 of Ki in nM,CA IX [1],4.732
Cc1cc(C)oc(=O)c1 [B0786],log10 of Ki in nM,CA IX [1]; [3],3.393
C#CCOc1ccc(S(N)(=O)=O)cc1 [A0523],log10 of Ki in nM,CA IX [1]; [3],0.914
COc1cc(OC)c(/C=C(\C#N)C(=O)Nc2ccc(S(N)(=O)=O)cc2)c(OC)c1 [A0495],log10 of Ki in nM,CA IX [1]; [5],0.892
NS(=O)(=O)c1ccc(C(=O)NNC(=O)Nc2ccc([N+](=O)[O-])cc2)cc1 [A0170],log10 of Ki in nM,CA IX [1],0.505
COC(=O)c1cn(-c2ccc(S(N)(=O)=O)cc2)nc1-c1ccc(F)cc1 [A0626],log10 of Ki in nM,CA IX [1]; [5],0.973
CCOC(=O)c1cc(O)ccc1O [A2120],log10 of Ki in nM,CA IX [1],2.934
Cc1cc(C)c(S(=O)(=O)Nc2ccc(C3C4=C(CC(C)(C)CC4=O)N(c4ccc(S(N)(=O)=O)cc4)C4=C3C(=O)CC(C)(C)C4)cc2)c(C)c1 [A1534],log10 of Ki in nM,CA IX [1]; [3],1.954
O=S1(=O)C=Cc2cc(-n3cnnn3)ccc2O1 [A1395],log10 of Ki in nM,CA IX [1]; [3],1.836
Cc1ccc(-n2c(=S)[nH]c3c(c(-c4ccc(Br)cc4)cn3-c3ccc(S(N)(=O)=O)cc3)c2=N)cc1 [A1740],log10 of Ki in nM,CA IX [1]; [3],2.210
CC1(C)CC(=O)C2=C(C1)N(c1ccc(S(N)(=O)=O)cc1)C1=C(C(=O)CC(C)(C)C1)C2c1ccc([N+](=O)[O-])cc1 [B0775],log10 of Ki in nM,CA IX [1]; [3],3.009
COc1ccc(-c2cnc(C3CCC3)o2)cc1S(N)(=O)=O [B0034],log10 of Ki in nM,CA IX [1]; [5],0.491
Nc1cc(Nc2ccc(S(N)(=O)=O)cc2)nc(N)n1 [A0250],log10 of Ki in nM,CA IX [1]; [4],0.591
Nc1nc(N)c2nc(CNCCc3ccc(S(N)(=O)=O)cc3)cnc2n1 [A0285],log10 of Ki in nM,CA IX [1]; [5],0.672
NS(=O)(=O)c1ccc(-c2cnc(C3CCC3)o2)cc1 [B0121],log10 of Ki in nM,CA IX [1]; [5],0.813
Nc1c(Cl)cc(S(=O)(=O)Nc2nnc(S(N)(=O)=O)s2)cc1Br [A0922],log10 of Ki in nM,CA IX [1],1.362
NS(=O)(=O)c1ccc(-n2c(S)nc3cc(F)ccc3c2=O)cc1 [A0315],log10 of Ki in nM,CA IX [1]; [3],0.708
Cc1cc(=O)oc2cc(-n3cc(CSc4ccccc4)nn3)ccc12 [A1053],log10 of Ki in nM,CA IX [1]; [4],1.471
CCOc1nc(NCCc2ccc(S(N)(=O)=O)cc2)nc(OCC)n1 [A0719],log10 of Ki in nM,CA IX [1],1.079
NS(=O)(=O)c1cc(-c2cnc(C3CC3)o2)cs1 [B0238],log10 of Ki in nM,CA IX [1]; [3],1.114
Cc1ccc(-c2cnc(C3CC3)o2)cc1S(N)(=O)=O [A1938],log10 of Ki in nM,CA IX [1]; [4],2.502
Cc1cc(S(N)(=O)=O)c(S/C(=N\Nc2ccc([N+](=O)[O-])cc2)c2ccccc2)cc1Cl [A2454],pKi,CA IX [2]; [6],5.00
same,log10 of Ki in nM,CA IX [2]; [7],4.000
CC(=O)OC[C@@H]1O[C@H](S(=O)(=O)Cc2cn(-c3ccc(S(N)(=O)=O)cc3)nn2)[C@@H](OC(C)=O)[C@H](OC(C)=O)[C@H]1OC(C)=O [B0149],log10 of Ki in nM,CA IX [2],0.875
same,pKi,CA IX [2],8.12
O=S(=O)(NO)N[C@H]1C=C[C@H](O)[C@@H](CO)O1 [A0589],log10 of Ki in nM,CA IX [2],0.954
same,pKi,CA IX [2],8.05
CC1(C)O[C@H]2[C@H](CO[C@]3(CNC(=S)Nc4ccc(S(N)(=O)=O)cc4F)OC(C)(C)O[C@H]23)O1 [B0608],log10 of Ki in nM,CA IX [2],2.041
same,pKi,CA IX [2],6.96
Cc1ccc(-c2cnc(C(=O)N3CCCC3)o2)cc1S(N)(=O)=O [B0431],pKi,CA IX [2]; [8],7.37
C[C@H](Nc1nc(NCc2ccc(S(N)(=O)=O)cc2)nc(N[C@@H](C)C(=O)O)n1)C(=O)O [B0173],log10 of Ki in nM,CA IX [2],0.929
same,pKi,CA IX [2],8.07
CC(=O)OC[C@H]1O[C@@H](n2cc(-c3ccc(S(N)(=O)=O)cc3)nn2)[C@@H](OC(C)=O)[C@@H](OC(C)=O)[C@@H]1OC(C)=O [B0096],log10 of Ki in nM,CA IX [2],0.699
same,pKi,CA IX [2],8.30
CC1=C[C@@H](C)C(C)=C(C)N1Cc1ccc(S(N)(=O)=O)cc1 [B0397],log10 of Ki in nM,CA IX [2]; [7],1.544
same,pKi,"CA IX [2]; observed Ki of library compounds (IDs A…, B…), ref ChEMBL and BindingDB",7.46
Cc1cc(C)o/c(=N\O)c1 [B0259],log10 of Ki in nM,"CA IX [2]; library compounds (IDs A..., B...), values equal log10 of Ki in nM, ref ChEMBL, BindingDB",1.204
same,pKi,CA IX [2]; [8],7.80
CC(=O)OC[C@@H]1O[C@H](SNCCc2ccc(S(N)(=O)=O)cc2)[C@@H](OC(C)=O)[C@H](OC(C)=O)[C@@H]1OC(C)=O [B0585],log10 of Ki in nM,CA IX [2],1.987
same,pKi,CA IX [2],7.01
NS(=O)(=O)c1ccc(CC/N=C\c2ccc(-c3ccccn3)cc2)cc1 [A1025],log10 of Ki in nM,CA IX [2]; [9],1.446
same,pKi,CA IX [2]; [10],7.55
CC1(C)CC(NC(=S)Nc2ccc(S(N)(=O)=O)cc2)CC(C)(C)N1O [A1198],pKi,"CA IX [2]; library compounds (IDs A…, B…), observed Ki towards CA IX, ref ChEMBL and BindingDB",7.39
same,log10 of Ki in nM,CA IX [2]; [7],1.613
CC(=O)Nc1ccc(S(=O)(=O)NC[C@H](C)F)cc1 [B0810],log10 of Ki in nM,CA IX [2]; [9],3.643
same,pKi,CA IX [2]; [10],5.36
NS(=O)(=O)c1ccc(N[C@H]2SC[C@@H](c3ccc([N+](=O)[O-])cc3)N2C2CCCCC2)cc1 [B0353],pKi,CA IX [2]; [6],7.54
same,log10 of Ki in nM,CA IX [2]; [7],1.462
CC(C)OS(N)(=O)=O [A2163],pKi,CA IX [2],6.00
